Assay results published in PMC10224441, “Structural Manipulations of Marine Natural Products Inspire a New Library of 3-Amino-1,2,4-Triazine PDK Inhibitors Endowed with Antitumor Activity in Pancreatic Ductal Adenocarcinoma” (Marine Drugs, 2023).
Where two headings read alike, the source gives them in different places.

Tests used:
recombinant human PDK1 = target: T1, recombinant human PDK1 (Homo sapiens, UniProt Q15118); experiment: PDK1 ADPGlo Kinase Assay; assay type: biochemical; settings: for inhibition of PDK1 enzymatic activity: 1.5 µM compound, 30 min, room temperature; for IC50: isolated PDK1 isoform, four-parameter logistic model, mean of 3 independent experiments, read-out: IC50 (µM) ± S.D. PDK1
T1 construct: purchased Abcam
T1 sequence (Q15118 29-436): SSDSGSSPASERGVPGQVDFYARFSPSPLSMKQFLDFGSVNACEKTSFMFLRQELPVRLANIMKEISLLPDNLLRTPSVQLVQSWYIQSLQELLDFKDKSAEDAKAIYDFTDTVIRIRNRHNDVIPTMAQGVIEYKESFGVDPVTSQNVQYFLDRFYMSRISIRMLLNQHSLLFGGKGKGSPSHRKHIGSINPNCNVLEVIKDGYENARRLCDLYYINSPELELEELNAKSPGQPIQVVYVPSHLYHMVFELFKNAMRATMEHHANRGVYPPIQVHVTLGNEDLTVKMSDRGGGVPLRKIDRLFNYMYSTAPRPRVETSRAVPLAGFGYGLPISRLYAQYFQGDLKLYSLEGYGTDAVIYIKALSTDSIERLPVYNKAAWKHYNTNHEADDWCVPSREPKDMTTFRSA
Experimental: The ability of the tested compounds to hamper the activity of PDK1-4 isoforms was firstly evaluated by means of a chemioluminescent assay, the ADPGlo™ Kinase Assay kit (Promega Corporation, Madison, WI, USA).
(§1) The in vitro inhibitory activity of tested compounds on recombinant human PDK1-4 isoforms (Abcam, Cambridge, MA, USA) was evaluated by using the ADPGlo™ Kinase Assay kit from Promega (Promega Corporation, Madison, WI, USA) following the instructions of the manufacturer, as previously described.

recombinant human PDK4 = target: T2, recombinant human PDK4 (Homo sapiens, UniProt Q16654); experiment: PDK4 ADPGlo Kinase Assay; assay type: biochemical; settings: 1.5 µM compound, 30 min, room temperature
T2 construct: purchased Abcam
T2 sequence (Q16654 whole entry): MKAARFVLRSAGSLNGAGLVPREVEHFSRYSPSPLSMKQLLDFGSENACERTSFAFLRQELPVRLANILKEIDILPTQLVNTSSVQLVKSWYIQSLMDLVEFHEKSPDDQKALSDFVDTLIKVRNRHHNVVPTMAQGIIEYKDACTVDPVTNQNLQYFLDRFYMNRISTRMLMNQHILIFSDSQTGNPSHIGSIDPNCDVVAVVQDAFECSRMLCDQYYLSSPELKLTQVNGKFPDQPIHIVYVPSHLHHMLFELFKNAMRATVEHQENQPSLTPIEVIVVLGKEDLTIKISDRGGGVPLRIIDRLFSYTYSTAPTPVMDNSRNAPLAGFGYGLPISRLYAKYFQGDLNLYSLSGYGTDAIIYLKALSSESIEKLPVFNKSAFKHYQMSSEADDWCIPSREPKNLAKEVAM
Experimental: The ability of the tested compounds to hamper the activity of PDK1-4 isoforms was firstly evaluated by means of a chemioluminescent assay, the ADPGlo™ Kinase Assay kit (Promega Corporation, Madison, WI, USA). The results obtained by incubating PDK1-4 isoforms for 30 min at room temperature with 1.5 µM of tested compounds are depicted in Figure 3 panel A as a heat-map summary of the inhibition percentage on PDK1-4 enzymatic activity. All the newly synthesized compounds were able to inhibit the pyruvate dehydrogenase kinases, although to a different extent and showing a preferential activity towards the PDK1 and PDK4 isoforms. […] Conversely, all tested 1,2,4-triazin-3-amines were barely effective in blocking PDK2 activity at 1.5 µM concentration. In addition, IC50 values on the PDK1 isoform were also calculated for all synthesized derivatives and the results are shown in Table 2.
as §1

recombinant human HSP90 = recombinant human HSP90 (Homo sapiens, UniProt P07900); experiment: HSP90 inhibition assay (Transcreener ADP kit); assay type: biochemical; settings: for IC50: isolated HSP90, four-parameter logistic model, mean of 3 independent experiments, read-out: IC50 (µM) ± S.D. HSP90; for inhibition of HSP90 enzyme activity: 1.5 µM compound
Experimental: Since the ATP binding pockets in PDKs and HSP90 are similar and taking into consideration that these 1,2,4-triazine derivatives conserved a chemical scaffold resembling that of the well-known Hsp90 inhibitor Ganetespib, the most performant PDK inhibitors 4d, 4f, 4h, 5d, 5f, 5h and 5j were also screened for their ability to target HSP90.
The in vitro inhibitory activity of tested compounds on recombinant human HSP90 was assessed by The Transcreener™ ADP kit (Bellbrook Labs, Madison, WI, USA) according to the manufacturer’s protocol as previously described.

[1] = system: BxPC-3 cells (KRAS-wild-type PDAC); experiment: 2D cytotoxicity, MTT assay, BxPC-3; assay type: cell-based; settings: Homo sapiens, read-out: IC50 (µM) ± S.D. BxPC-3 (2D)
Experimental: (§2) All newly developed 1,2,4-amino-triazine compounds were screened for their cytotoxic activity against two human PDAC cell lines, namely, a KRAS-wild-type PDAC cell line (BxPC-3 cells) and a KRAS-mutant PDAC cell line (PSN-1 cells). […] The cytotoxicity parameters, expressed in terms of IC50 and obtained after 72 h of drug exposure by MTT assay, are reported in Table 3.
(§3) All tested compounds were dissolved in DMSO just before the experiment, and a calculated amount of drug solution was added to the cell growth medium to a final solvent concentration of 0.5%, which had no detectable effects on cell viability.
(§4) Human pancreatic PSN-1 and BxPC-3 carcinoma cell lines were obtained by American Type Culture Collection (ATCC, Rockville, MD, USA). Cell lines were maintained in the logarithmic phase at 37 °C in a 5% carbon dioxide atmosphere using RPMI-1640 medium (EuroClone) containing 10% fetal calf serum (EuroClone, Milan, Italy), antibiotics (50 units/mL penicillin and 50 μg/mL streptomycin) and 2 mM l-glutamine.
(§5) The growth inhibitory effect on tumor cells was evaluated by means of MTT assay. Briefly, 5 × 10^3 cells/well were seeded in 96-well microplates in a growth medium (100 μL). After 24 h, the medium was removed and replaced with a fresh one containing the compound to be studied at the appropriate concentration. Triplicate cultures were established for each treatment. After 72 h, each well was treated with 10 μL of a 5 mg/mL MTT saline solution, and following 5 h of incubation, 100 μL of a sodium dodecyl sulfate (SDS) solution in HCl 0.01 M was added. After overnight incubation, cell growth inhibition was detected by measuring the absorbance of each well at 570 nm using a Bio-Rad 680 microplate reader. The mean absorbance for each drug dose was expressed as a percentage of the control untreated well absorbance and plotted vs. drug concentration. IC50 values, the drug concentrations that reduce the mean absorbance at 570 nm to 50% of those in the untreated control wells, were calculated by the four-parameter logistic (4-PL) model. The evaluation was based on means from at least four independent experiments.

[2] = system: PSN-1 cells (KRAS-mutant PDAC); experiment: 2D cytotoxicity, MTT assay, PSN-1; assay type: cell-based; settings: Homo sapiens, read-out: IC50 (µM) ± S.D. PSN-1 (2D)
Experimental: as §2, §3, §4, §5

BxPC-3 spheroids = experiment: 3D spheroid cytotoxicity, acid phosphatase (APH) assay, BxPC-3; assay type: cell-based; settings: Homo sapiens, 72 h, acid phosphatase (APH) test, read-out: IC50 (µM) ± S.D. BxPC-3 (3D spheroids)
PSN-1 spheroids = experiment: 3D spheroid cytotoxicity, acid phosphatase (APH) assay, PSN-1; assay type: cell-based; settings: Homo sapiens, PSN1, 72 h, acid phosphatase (APH) test, read-out: IC50 (µM) ± S.D. PSN-1 (3D spheroids)
Experimental: Prompted by these encouraging results, we also screened the newly developed 1,2,4-triazine compounds against 3D spheroids of PDAC KRAS wild-type and mutant cells, to further estimate their anticancer potential in a more predictive environment. […] The PDAC cancer spheroids were treated with tested compounds for 72 h, and cell viability was assessed by means of the acid phosphatase (APH) assay (Table 3). The efficacy of gemcitabine as well as of DCA and DAP was assessed under the same experimental conditions.
Spheroid cultures were obtained by seeding 2.5 × 10^3 PSN-1 cancer cells/well in a round-bottom non-treated tissue culture 96-well plate (Greiner Bio-one, Kremsmünster, Austria) in phenol red-free RPMI-1640 medium (Sigma Chemical Co, St. Louis, MO, USA) containing 10% fetal calf serum and supplemented with 20% methylcellulose stock solution.
An APH-modified assay was used for determining cell viability in 3D spheroids, as previously described. Briefly, the pre-seeded spheroids were treated with fresh medium containing the compound to be studied at the appropriate concentration (range 2.5–200 μM). Triplicate cultures were established for each treatment. After 72 h, each well was treated with 100 μL of the assay buffer (0.1 M sodium acetate, 0.1% Triton-X-100, supplemented with ImmunoPure p-nitrophenyl phosphate; Sigma Chemical Co.) and, following 3 h of incubation, 10 μL of 1 M NaOH solution were added. The inhibition of the cell growth induced by the tested compounds was detected by measuring the absorbance of each well at 405 nm, using a Bio-Rad 680 microplate reader. The mean absorbance for each drug dose was expressed as a percentage of the control untreated well absorbance (T/C) and plotted vs. drug concentration. IC50 values, the drug concentrations that reduce the mean absorbance at 405 nm 50% of those in the untreated control wells, were calculated by the four-parameter logistic (4-PL) model. The evaluation was based on means from at least four independent experiments.

[3] = BXPC-3, 72 h exposure, MTT test, 2D culture
[4] = PSN1, 72 h exposure, MTT test, 2D culture

Row | SMILES | inhibition of PDK1 enzymatic activity (recombinant human PDK1) | IC50 (recombinant human PDK1) | inhibition of PDK4 enzymatic activity (recombinant human PDK4) | decrease of HSP90 catalytic activity (recombinant human HSP90; 1.5 µM compound (equi-doses)) | IC50 (recombinant human HSP90) | IC50 [1, 3] | IC50 [2, 4] | IC50 (BxPC-3 spheroids) | IC50 (PSN-1 spheroids) | melting point | inhibition of HSP90 enzyme activity (recombinant human HSP90) | IC50 ([1]; BXPC-3, 72 h) | IC50 ([2]; PSN1, 72 h) | decrease in potency on PDK1 relative to 5d and 5j (recombinant human PDK1; compared with the other two examined ligands (5d, 5j))
1 | COc1ccc2c(c1)c(-c1nc(N)nnc1-c1cn(C)c3ncc(Br)cc13)cn2C [5j, 6-(5-Bromo-1-methyl-1H-pyrrolo[2,3-b]pyridin-3-yl)-5-(5-methoxy-1-methyl-1H-indol-3-yl)-1,2,4-triazin-3-amine] | totally hampered | 0.04 ± 0.02 µM | completely suppress | 60–80% | 0.18 ± 0.04 µM | 0.04 ± 0.02 µM | 0.1 ± 0.03 µM | 79.5 ± 5.4 µM | 89.7 ± 5.7 µM | 269.8 °C | – | – | – | –
2 | Cn1cc(-c2nc(N)nnc2-c2cn(C)c3ncc(Br)cc23)c2cc(Cl)ccc21 [5f, 6-(5-Bromo-1-methyl-1H-pyrrolo[2,3-b]pyridin-3-yl)-5-(5-chloro-1-methyl-1H-indol-3-yl)-1,2,4-triazin-3-amine] | totally hampered | 0.08 ± 0.02 µM | completely suppress | – | 0.11 ± 0.04 µM | 22.4 ± 3.2 µM | 21.3 ± 4.4 µM | 229 ± 17.2 µM | 213 ± 14.4 µM | 334.6 °C | completely abolish | – | – | –
3 | Cn1cc(-c2nnc(N)nc2-c2cn(C)c3ncc(Br)cc23)c2cc(Br)ccc21 [4d, 6-(5-Bromo-1-methyl-1H-indol-3-yl)-5-(5-bromo-1-methyl-1H-pyrrolo[2,3-b]pyridin-3-yl)-1,2,4-triazin-3-amine] | totally hampered | 0.04 ± 0.02 µM | completely suppress | – | 0.06 ± 0.02 µM | 30.2 ± 6.2 µM | 23.4 ± 3.7 µM | 176 ± 15.7 µM | 103 ± 9.1 µM | – | completely abolish | – | – | –
4 | Cn1cc(-c2nnc(N)nc2-c2cn(C)c3ncc(Br)cc23)c2cc(Cl)ccc21 [4f, 5-(5-Bromo-1-methyl-1H-pyrrolo[2,3-b]pyridin-3-yl)-6-(5-chloro-1-methyl-1H-indol-3-yl)-1,2,4-triazin-3-amine] | totally hampered | 0.12 ± 0.04 µM | – | – | 0.1 ± 0.03 µM | 18.4 ± 1.4 µM | 11.3 ± 1.8 µM | 169 ± 12.4 µM | 162 ± 6.8 µM | 262.1 °C | completely abolish | – | – | –
5 | Cn1cc(-c2nc(N)nnc2-c2cn(C)c3ncc(Br)cc23)c2cc(F)ccc21 [5h, 6-(5-Bromo-1-methyl-1H-pyrrolo[2,3-b]pyridin-3-yl)-5-(5-fluoro-1-methyl-1H-indol-3-yl)-1,2,4-triazin-3-amine] | totally hampered | 0.05 ± 0.03 µM | completely suppress | – | 0.09 ± 0.03 µM | 0.05 ± 0.03 µM | 27.4 ± 5.1 µM | 208 ± 12.7 µM | 132 ± 5.9 µM | 311.1 °C | completely abolish | – | – | –
6 | O=C(c1ccccc1)C(Cl)Cl [DAP, 2,2-dichloroacetophenone, reference compound] | – | 212 ± 48 µM | – | – | 698 ± 83 µM | – | – | 78.2 ± 6.2 µM | 87.4 ± 8.9 µM | – | – | 16.5 ± 0.9 µM | 10.2 ± 1.6 µM | –
7 | Cn1cc(-c2nnc(N)nc2-c2cn(C)c3ncccc23)c2cc(Cl)ccc21 [4e, 6-(5-Chloro-1-methyl-1H-indol-3-yl)-5-(1-methyl-1H-pyrrolo[2,3-b]pyridin-3-yl)-1,2,4-triazin-3-amine] | – | 0.29 ± 0.06 µM | – | – | – | 32.3 ± 8.2 µM | 26.5 ± 4.3 µM | 160 ± 11.4 µM | 59.6 ± 4.5 µM | 178 °C | – | – | – | 6 fold
8 | Cn1cc(-c2nnc(N)nc2-c2cn(C)c3ncc(Br)cc23)c2cc(F)ccc21 [4h, 5-(5-Bromo-1-methyl-1H-pyrrolo[2,3-b]pyridin-3-yl)-6-(5-fluoro-1-methyl-1H-indol-3-yl)-1,2,4-triazin-3-amine] | totally hampered | 0.06 ± 0.02 µM | – | – | – | 22.3 ± 2.4 µM | 17.5 ± 2.8 µM | 188 ± 14.4 µM | 77.8 ± 3.8 µM | 155.6 °C | completely abolish | – | – | –
